# Measurements published in US20250051327A1, “MALT-1 MODULATORS” (EXSCIENTIA AI LIMITED, priority 2020, published 2025).
# Test system: IL-2 secretion by human effector memory T cells (TEM)
# Assay: Effector memory T cells IL-2 release assay
# Type: cell-based
# Settings: T-cell; human CD4+ effector memory T cells, CD3/CD28 bead stimulation, 24 h; read-out: CD4TC IL2 IC50
# Experimental: Effector Memory T Cells IL-2 Release Assay
# Test compound-mediated inhibition of NFκB signalling in T cells was assessed by quantification of the IL-2 secretion by human effector memory T cells (TEM) upon treatment and stimulation. Human TEM cells were isolated from buffy coats of healthy donors obtained from the French blood bank. First, peripheral blood mononuclear cells (PBMC) were purified from buffy coats diluted 1:1 with DPBS (Gibco, cat #14190-094) by Pancoll (PAN BIOTECH, cat #P04-60500) density gradient centrifugation at 400×g for 20 minutes. TEM cells were further enriched by negative immuno-magnetic cell sorting using a human CD4+ Effector Memory T Cell Isolation Kit (Miltenyi, cat #130-094-125) according to the manufacturer's instructions. Aliquots of 3×10E6 purified TEM cells were kept frozen in Cryo-SFM medium (PromoCell, cat #C-29912) in gas phase nitrogen until used. Cell purity was verified by flow cytometry analysis of 200 000 PFA-fixed cells previously labelled with monoclonal antibodies anti-CD4-PerCP-Cy5.5 (BD Pharmigen, cat #332772), anti-CD8-V500 (BD Biosciences, cat #561617), anti-CD14-Pacific Blue (Biolegend, cat #325616), anti-CD45 RA-FITC (Biolegend, cat #304106) and anti-CCR7-APC (in CD4+ Effector Memory T Cell Isolation Kit, Miltenyi, cat #130-094-125).
# TEM cells were resuspended in complete RPMI medium composed of: RPMI 1640 (Gibco, cat #31870-025), 10% heat inactivated fetal bovine serum (Sigma, cat #F7524), 2 mM GlutaMAX (Gibco, cat #35050-038), 1 mM sodium pyruvate 100× (Gibco, cat #11360-039), 1% MEM non-essential amino acids solution (Gibco, cat #11140-035) and 100 U/mL penicillin, 100 μg/mL streptomycin (Sigma-Aldrich, cat #11074440001). 5,000 cells per well were plated onto flat clear bottom 384 well plates (Corning, cat #3770). 5,000 Dynabeads Human T-Activator CD3/CD28 (Gibco, cat #11132D) were added to each well for cell stimulation. Finally, 10 doses of test compound, originally prepared in DMSO by serial semi-log step dilution, were also added to cells in triplicate wells. Final DMSO concentration in wells was 0.1% in a total volume of 100 μL complete medium. Plates were incubated for 24 h at 37° C. in 5% CO2 atmosphere. After incubation, cell suspensions were centrifuged at 400×g and culture supernatants were recovered and stored at −80° C. Cell viability was assessed by flow cytometry after staining the cells with Fixable Viability Dye eFluor 780 (Invitrogen, cat #65-0865-14). IL-2 levels were determined in cell supernatants using an HTRF human IL-2 detection kit (Cisbio, cat #62HIL02PEH). IL-2 data at the different compound doses were fitted to a 4-parameter logistic curve to determine IC50 values, corresponding to the compound concentration leading to 50% reduction of the maximal IL-2 levels observed in each experiment. Viability data were analysed similarly to exclude cytotoxicity as a cause of IL-2 decrease (see Table 1).
row,IC50,SMILES
1,162 nM,"C[C@H]1CCN(c2ccc([C@H](N(C)C(=O)[C@H]3CC[S@](=N)(=O)CC3)C(F)(F)F)cc2)c2cnc3cc(F)nn3c21 (relative stereo) [CPD0074553, (1rel s, 4rel s)1-imino-N-methyl-1-oxo-N-[(1S)-2,2,2-trifluoro-1-[4-[(13 rel S)-4-fluoro-13-methyl-2,3,7,10-tetrazatricyclo[7.4.0.0^2,6]trideca-1(9),3,5,7-tetraen-10-yl]phenyl]ethyl]thiane-4-carboxamide]"
2,170 nM,"C[C@H]1CCN(c2ccc([C@H](N(C)C(=O)[C@H]3CC[S@@](=N)(=O)CC3)C(F)(F)F)cc2)c2cnc3cc(F)nn3c21 (relative stereo) [CPD0074554, (1rel r, 4rel r)1-imino-N-methyl-1-oxo-N-[(1S)-2,2,2-trifluoro-1-[4-[(13 rel S)-4-fluoro-13-methyl-2,3,7,10-tetrazatricyclo[7.4.0.0^2,6]trideca-1(9),3,5,7-tetraen-10-yl]phenyl]ethyl]thiane-4-carboxamide]"
3,27 nM,"COc1ccc2ncc(Nc3ccc([C@H](N(C)C(=O)C4CCN(C(C)=O)CC4)C(F)(F)F)cc3)c([C@H](C)OC)c2n1 (relative stereo) [CPD0074559, 1-acetyl-N-methyl-N-[(1S)-2,2,2-trifluoro-1-[4-[6-methoxy-4-[(1 rel S)-1-methoxyethyl]-1,5-naphthyridin-3-yl]amino]phenyl]ethyl]piperidine-4-carboxamide]"
4,68 nM,"COc1ccc2ncc(Nc3ccc([C@H](N(C)C(=O)[C@H]4CNC(=O)C4)C(F)(F)F)cc3)c([C@H](C)OC)c2n1 (relative stereo) [CPD0074562, (3 rel R)-N-methyl-5-oxo-N-[(1S)-2,2,2-trifluoro-1-[4-[[6-methoxy-4-[(1 rel S)-1-methoxyethyl]-1,5-naphthyridin-3-yl]amino]phenyl]ethyl]pyrrolidine-3-carboxamide]"
5,35 nM,"COc1ccc2ncc(Nc3ccc([C@H](N(C)C(=O)[C@@H]4CCC(=O)N4)C(F)(F)F)cc3)c([C@H](C)OC)c2n1 (relative stereo) [CPD0075580, (2 rel S)-N-methyl-5-oxo-N-[(1S)-2,2,2-trifluoro-1-[4-[[6-methoxy-4-[(1 rel S)-1-methoxyethyl]-1,5-naphthyridin-3-yl]amino]phenyl]ethyl]pyrrolidine-2-carboxamide]"
6,29 nM,"COc1ccc2ncc(Nc3ccc([C@H](N(C)C(=O)[C@H]4CCC(=O)N4)C(F)(F)F)cc3)c([C@H](C)OC)c2n1 (relative stereo) [CPD0075581, (2 rel R)-N-methyl-5-oxo-N-[(1S)-2,2,2-trifluoro-1-[4-[6-methoxy-4-[(1 rel S)-1-methoxyethyl]-1,5-naphthyridin-3-yl]amino]phenyl]ethyl]pyrrolidine-2-carboxamide]"
7,115 nM,COc1ccc2ncc(Nc3ccc([C@H](N(C)C(=O)C4CCS(=O)(=O)CC4)C(F)(F)F)cn3)c(C(C)OC)c2n1 (stereo partly drawn) [CPD0019007]
8,108 nM,"COc1ccc2ccc(Nc3ccc([C@H](N(C)C(=O)C4CCS(=O)(=O)CC4)C(F)(F)F)cc3)cc2n1 [CPD0019078, N-methyl-1,1-dioxo-N-[(1S)-2,2,2-trifluoro-1-{4-[(2-methoxyquinolin-7-yl)amino]phenyl}ethyl]-16-thiane-4-carboxamide]"
9,452 nM,"CN(C(=O)C1CCS(=O)(=O)CC1)[C@@H](c1ccc(N2CCCc3c2cnc2cc(Cl)nn32)nc1)C(F)(F)F [CPD0019212, N-[(1S)-1-(6-{4-chloro-2,3,7,10-tetraazatricyclo[7.4.0.0^2,6]trideca-1(9),3,5,7-tetraen-10-yl}pyridin-3-yl)-2,2,2-trifluoroethyl]-N-methyl-1,1-dioxo-1λ^6-thiane-4-carboxamide]"
10,37 nM,"CN(C(=O)C1CCS(=O)(=O)CC1)[C@@H](c1ccc(N2CCC3(CC3)c3c2cnc2cc(Cl)nn32)cc1)C(F)(F)F [CPD0019590, N-[(1S)-1-(4-{4′-chloro-2′,3′,7′, 10′-tetraazaspiro[cyclopropane-1,13′-tricyclo[7.4.0.0^2,6]tridecane]-1′(9′),3′,5′,7′-tetraen-10′-yl}phenyl)-2,2,2-trifluoroethyl]-N-methyl-1,1-dioxo-1λ^6-thiane-4-carboxamide]"
11,112 nM,"CN(C(=O)C1CCS(=O)(=O)CC1)[C@@H](c1ccc(N2CCC3(CC3)c3c2cnc2cc(Cl)nn32)nc1)C(F)(F)F [CPD0021660, N-[(1S)-1-(6-{4′-chloro-2′,3′,7′,10′-tetraazaspiro[cyclopropane-1,13′-tricyclo[7.4.0.0^2,6]tridecane]-1′(9′),3′,5′,7′-tetraen-10′-yl}pyridin-3-yl)-2,2,2-trifluoroethyl]-N-methyl-1,1-dioxo-1λ^6-thiane-4-carboxamide]"
12,116 nM,"CN(C(=O)C1CCS(=O)(=O)CC1)[C@@H](c1ccc(N2CC3(CC3)Cc3c2cnc2cc(Cl)nn32)cc1)C(F)(F)F [CPD0022148, N-[(1S)-1-(4-{4′-chloro-2′,3′,7′,10′-tetraazaspiro[cyclopropane-1,12′-tricyclo[7.4.0.0^2,6]tridecane]-1′(9′),3′,5′,7′-tetraen-10′-yl}phenyl)-2,2,2-trifluoroethyl]-N-methyl-1,1-dioxo-1λ^6-thiane-4-carboxamide]"
13,65 nM,"COC[C@@]1(C)CCN(c2ccc([C@H](N(C)C(=O)C3CCS(=O)(=O)CC3)C(F)(F)F)cc2)c2cnc3cc(Cl)nn3c21 [CPD0073139, N-[(1S)-1-[4-[(13rel-S)-4-chloro-13-(methoxymethyl)-13-methyl-2,3,7,10-tetrazatricyclo[7.4.0.0^2,6]trideca-1(9),3,5,7-tetraen-10-yl]phenyl]-2,2,2-trifluoro-ethyl]-N-methyl-1,1-dioxo-1λ^6-thiane-4-carboxamide]"
14,192 nM,"COC[C@]1(C)CCN(c2ccc([C@H](N(C)C(=O)C3CCS(=O)(=O)CC3)C(F)(F)F)cc2)c2cnc3cc(Cl)nn3c21 [CPD0073140, N-[(1S)-1-[4-[(13rel-R)-4-chloro-13-(methoxymethyl)-13-methyl-2,3,7,10-tetrazatricyclo[7.4.0.0^2,6]trideca-1(9),3,5,7-tetraen-10-yl]phenyl]-2,2,2-trifluoro-ethyl]-N-methyl-1,1-dioxo-1λ^6-thiane-4-carboxamide]"
15,239 nM,"CN(C(=O)[C@@H]1CCN(C(=O)CC#N)C1)[C@@H](c1ccc(N2CCCc3c2cnc2cc(Cl)nn32)cc1)C(F)(F)F [CPD0073190, (3rel-R)-N-[(1S)-1-[4-(4-chloro-2,3,7,10-tetrazatricyclo[7.4.0.0^2,6]trideca-1(9),3,5,7-tetraen-10-yl)phenyl]-2,2,2-trifluoro-ethyl]-1-(2-cyanoacetyl)-N-methyl-pyrrolidine-3-carboxamide]"
16,148 nM,"CN(C(=O)[C@H]1CCN(C(=O)CC#N)C1)[C@@H](c1ccc(N2CCCc3c2cnc2cc(Cl)nn32)cc1)C(F)(F)F [CPD0073191, (3rel-S)-N-[(1S)-1-[4-(4-chloro-2,3,7,10-tetrazatricyclo[7.4.0.0^2,6]trideca-1(9),3,5,7-tetraen-10-yl)phenyl]-2,2,2-trifluoro-ethyl]-1-(2-cyanoacetyl)-N-methyl-pyrrolidine-3-carboxamide]"
17,172 nM,"CN(C(=O)[C@H]1C[C@@H]([S@@+](C)(=N)[O-])C1)[C@@H](c1ccc(N2CCCc3c2cnc2cc(Cl)nn32)cc1)C(F)(F)F [CPD0073223, (1R,3s)-N-[(1S)-1-(4-{4-chloro-2,3,7,10-tetraazatricyclo[7.4.0.0^2,6]trideca-1(9),3,5,7-tetraen-10-yl}phenyl)-2,2,2-trifluoroethyl]-3-[(S)-imino(methyl)oxo-λ^6-sulfanyl]-N-methylcyclobutane-1-carboxamide]"
18,183 nM,"CN(C(=O)[C@H]1CC[S@](=N)(=O)CC1)[C@@H](c1ccc(N2CC(C)(C)Cc3c2cnc2cc(Cl)nn32)cc1)C(F)(F)F [CPD0073497, (1rel r,4rel r)-N-[(1S)-1-(4-{4-chloro-12,12-dimethyl-2,3,7,10-tetraazatricyclo[7.4.0.0^2,6]trideca-1(9),3,5,7-tetraen-10-yl}phenyl)-2,2,2-trifluoroethyl]-1-imino-N-methyl-1-oxo-1λ^6-thiane-4-carboxamide]"
